Measured values published in patent US20250163072A1, “MACROCYCLIC COMPOUNDS FOR THE TREATMENT OF CANCER” (Hoffmann-La Roche Inc., priority 2021, published 2025).

How the values were obtained:
KRAS G12D in AGS cells = experiment: pERK inhibition assay, AGS; type: cell-based, human; settings: Homo sapiens, 4 hours incubation
Summary of the method: (§1)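 NCI-H358, AGS and SW620 cells in RPMI-1640/10% FBS were plated overnight, then exposed to compound (0.5% DMSO final) for 4 h. After fixation and permeabilization, phospho-ERK was quantified by in-cell ELISA (HRP secondary, TMB, OD450); IC50 from a 4-parameter sigmoidal fit.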

[1] = test system: KRAS G12C in NCI-H358 cells; experiment: pERK inhibition assay, NCI-H358; type: cell-based, human; settings: Homo sapiens, 4 hours incubation
Summary of the method: as §1

KRAS G12C-BRAF complex [2] = target: T1, KRAS G12C-BRAF complex (Homo sapiens (Human), UniProt P01116+P62937, G12C); experiment: KRAS-BRAF with CYPA (50 nM) interaction assay (TR-FRET), G12C; type: binding; settings: GMPPNP loaded 6His-KRAS, GST-BRAF RBD
Procedure: (§2) In this example, TR-FRET was also used to measure the compound or compound-CYPA dependent disruption of the KRAS G12C-BRAF complex. This protocol was also used to measure disruption of KRAS G12D or KRAS G12V binding to BRAF by a compound of the invention, respectively. In assay buffer containing 25 mM HEPES PH=7.4 (4-(2-hydroxyethyl)-1-piperazineethanesulfonic acid, Thermo, 15630080), 0.002% Tween20, 0.1% BSA, 100 mM NaCl, 5 mM MgCl2, 10 μM GMPPNP (Guanosine 5'-[β,γ-imido]triphosphate trisodium salt hydrate, Sigma, G0635), tagless CYPA, GMPPNP loaded 6His-KRAS proteins, and GST-BRAF^RBD were mixed in a well of a 384-well assay plate at final concentrations of 50 nM, 6.25 nM and 1 nM, respectively. Compound was present in plate wells as a 16-point 3-fold dilution series starting at a final concentration of 10 μM and incubated for 3 hours. A mixture of MAb Anti-6His-XL665 (Cisbio, 61HISXLB) and Mab anti-GST-TB cryptate (Cisbio, 61GSTTLB) was then added at a final concentration of 6.67 nM and 0.21 nM, respectively, and the plate was incubated for an additional 1.5 hours. TR-FRET signal was read on a […] microplate reader (Ex320 nm, Em 665/615 nm). Compounds that facilitate disruption of the KRAS-BRAF complex were identified as those eliciting a decrease in the TR-FRET ratio relative to DMSO control wells.

[3] = GSH reaction rates (inherent GSH reactivity); type: in vitro ADME; settings: for T1/2(hour) in GSH: potassium phosphate buffer pH 7.4
Procedure: Therefore Strategy to minimize the GSH metabolism is very critical. Short T1/2 in inherent GSH reaction indicated high GSH reaction rate. Thus T1/2 in inherent GSH reaction assay was determined for the screening of candidates. Reference compounds and compounds of this invention potentially could form conjugation with GSH either through halogenated moieties substitution reaction or direct Michael addition reaction. This test was therefore performed to check GSH reactivity of listed compounds. For inherent GSH reactivity determination, compounds at 1 μM were incubated at 37° C. with and without 5 mM GSH for 0, 0.5, 1, 2, 4 and 6 h in 100 mM potassium phosphate buffer at pH 7.4. At the end of the designated time points, samples were quenched with acetonitrile containing 10 mM N-ethylmaleimide and an internal standard. Quenched samples were centrifuged, and supernatants were analyzed by LC-MS/MS for compound quantification.

KRAS G12V in SW620 = experiment: pERK inhibition assay, SW620; type: cell-based, human; settings: Homo sapiens, SW-620, SW620 cells, 4 hours incubation
Summary of the method: as §1

NCI-H358 cells = experiment: Cell viability assay, NCI-H358; type: cell-based, human; settings: Homo sapiens, NCI-H358, 72 hours, Cell Counting Kit-8, read-out: G12C IC50
Summary of the method: (§3)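 Cells were plated at 5,000 (NCI-H358) or 2,000 (AGS, SW620) per well and incubated overnight. They were then treated with compound in 0.5% DMSO for 72 h. Viability was read with CCK-8 as OD450 minus OD650 after 2 h, and IC50 came from a 4-parameter sigmoidal fit.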

[4] = target: KRAS G12V binding to BRAF (Homo sapiens (Human), UniProt P01116+P62937, G12V); experiment: KRAS-BRAF with CYPA (50 nM) interaction assay (TR-FRET), G12V; settings: GMPPNP loaded 6His-KRAS, GST-BRAF RBD
Procedure: as §2

AGS cells = experiment: Cell viability assay, AGS; type: cell-based, human; settings: Homo sapiens, 72 hours, Cell Counting Kit-8, read-out: G12D IC50
Summary of the method: as §3

[5] = target: KRAS G12D binding to BRAF (Homo sapiens (Human), UniProt P01116+P62937, G12D); experiment: KRAS-BRAF with CYPA (50 nM) interaction assay (TR-FRET), G12D; settings: GMPPNP loaded 6His-KRAS, GST-BRAF RBD
Procedure: as §2

[6] = Human hepatocytes stability assay; type: in vitro ADME; settings: for CL_hep (Human): 1 μM compound, human hepatocytes 1×10^6 cells/mL; for Clearance Category: human hepatocytes
Procedure: The hepatocyte stability assay measures the rate of disappearance of a compound from incubations with cryopreserved suspension hepatocytes from human. Positive controls, including Midazolam, Raloxifene and Dextromethorphan, are included in every experiment. Incubations consist of 1 μM tested compound and suspension of human hepatocytes (1×10^6 cells/mL) in supplemented Williams' E Medium with […] and 0.5% Penicillin-streptomycin. The hepatocyte suspension was incubated with intermittent shaking 900 rpm at 37° C., in a 5% CO2 incubator. The reaction was stopped by adding methanol containing internal standard (2 μM Tolbutamide) at 2, 10, 20, 40, 60 and 120 minutes after compound addition, depletion of the parent compound was monitored by LC-MS/MS analysis.

SW620 cells = experiment: Cell viability assay, SW620; type: cell-based, human; settings: Homo sapiens, SW-620, SW620, 72 hours, Cell Counting Kit-8, read-out: G12V IC50
Summary of the method: as §3

KRAS G12C-BRAF complex [7] = target: T1, KRAS G12C-BRAF complex; experiment: KRAS G12C-BRAF NanoBit assay; type: cell-based; settings: HEK293 cells, SmBit-KRAS G12C and BRAF RBD-LgBit, 3 hours incubation
Procedure: This assay is to measure the ability of tested compounds in disruption of the KRAS G12C-BRAF complex at the cellular level, we established the NanoBit cellular assay in mammalian HEK293 (ATCC) cells. HEK293 cells were grown and maintained using DMEM medium (Thermo Fisher Scientific) with 10% fetal bovine serum and 1% penicillin/streptomycin. Both KRAS G12C and BRAF RBD were cloned into the NanoBit vectors ([…] vectors system, Promega) with the orientations SmBit-KRAS G12C and BRAF RBD-LgBit, respectively, and co-transfected into HEK293 cells. Cells were then selected with 100 μg/mL Hygromycin B (10687010, Thermo Fisher) and Blasticidin (5 μg/mL) for 4 weeks to get the stable cell pool. On the day of the assay, 75 nL of compound solution was presented in a 384-well assay plate as a 16-point 3-fold dilution starting from a final concentration of 30 μM in DMSO. Then cells were seeded at 10,000 cells/25 μL/well in a 384-well plate. After 3 hours of incubation, 6 μL of volume of Nano-Glo® Live Cell Substrate (Promega) was added into each well. Monitor luminescence using ultra384 model in Envision at 20 minutes. Compounds that facilitate disruption of the KRAS G12C-BRAF RBD complex were identified as those eliciting a decrease of luminescence relative to DMSO control wells.

[8] = 1 μM compound, 5 mM GSH, 37° C., pH 7.4, 6 hr
[9] = 1 μM compound, 5 mM GSH, 37° C.

T1 sequence (P01116-2 other isoform, or with tags, fused parts or gaps G12C): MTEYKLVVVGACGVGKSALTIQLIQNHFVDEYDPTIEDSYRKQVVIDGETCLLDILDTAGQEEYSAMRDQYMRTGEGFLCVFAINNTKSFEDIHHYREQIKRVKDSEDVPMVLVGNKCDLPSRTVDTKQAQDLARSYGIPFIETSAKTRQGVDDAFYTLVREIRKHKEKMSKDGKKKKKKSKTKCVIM
T1 sequence (P62937 whole entry): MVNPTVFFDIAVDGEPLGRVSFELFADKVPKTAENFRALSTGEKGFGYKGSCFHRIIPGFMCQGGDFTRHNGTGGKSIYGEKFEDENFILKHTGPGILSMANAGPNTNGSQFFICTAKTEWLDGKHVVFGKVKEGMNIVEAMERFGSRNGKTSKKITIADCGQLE
Chain of KRAS G12D binding to BRAF (P01116-2 other isoform, or with tags, fused parts or gaps G12D): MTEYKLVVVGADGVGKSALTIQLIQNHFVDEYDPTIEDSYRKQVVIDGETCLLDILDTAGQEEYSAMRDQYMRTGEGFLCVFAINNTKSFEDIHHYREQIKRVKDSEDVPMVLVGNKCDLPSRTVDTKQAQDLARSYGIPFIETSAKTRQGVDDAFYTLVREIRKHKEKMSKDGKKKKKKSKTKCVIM
Chain of KRAS G12D binding to BRAF (P62937 whole entry): as the sequence (P62937 whole entry) above
Chain of KRAS G12V binding to BRAF (P01116-2 other isoform, or with tags, fused parts or gaps G12V): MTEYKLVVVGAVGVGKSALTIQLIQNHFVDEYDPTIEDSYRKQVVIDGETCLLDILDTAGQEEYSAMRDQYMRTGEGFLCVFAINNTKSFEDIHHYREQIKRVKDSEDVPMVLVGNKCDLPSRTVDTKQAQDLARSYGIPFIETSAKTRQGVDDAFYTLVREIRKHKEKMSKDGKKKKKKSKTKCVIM
Chain of KRAS G12V binding to BRAF (P62937 whole entry): as the sequence (P62937 whole entry) above

| SMILES | IC50 (KRAS G12D in AGS cells) | IC50 [1] | IC50 (KRAS G12C-BRAF complex [2]) | Remaining at 6 hr in GSH (%) [3, 8] | T1/2(hour) in GSH [3, 9] | IC50 (KRAS G12V in SW620) | IC50 (NCI-H358 cells) | IC50 [4] | IC50 (AGS cells) | IC50 [5] | CL_hep (Human) [6] | Clearance Category [6] | IC50 (SW620 cells) | Remaining at 6 hr in GSH (%) ([3]; 6 h, 1 μM, pH 7.4) | IC50 (KRAS G12C-BRAF complex [7]) |
| --- | --- | --- | --- | --- | --- | --- | --- | --- | --- | --- | --- | --- | --- | --- | --- |
| CO[C@@H](C)c1ncc(N2CCN(C)CC2)cc1-c1c2c3cc(ccc3n1CC(F)(F)F)-c1csc(n1)C[C@H](NC(=O)[C@H](C(C)C)N(C)C(=O)[C@H]1CCN(C(=O)[C@H](F)Cl)C1)C(=O)N1CCC[C@H](N1)C(=O)OCC(C)(C)C2 (atropisomer, axis not shown; (M)) [Example 21, (3S)-1-[(2R)-2-chloro-2-fluoro-acetyl]-N-[(1S)-1-[[(7S,13S)-(20M)-20-[2-[(1S)-1-methoxyethyl]-5-(4-methylpiperazin-1-yl)-3-pyridyl]-17,17-dimethyl-8,14-dioxo-21-(2,2,2-trifluoroethyl)-15-oxa-4-thia-9,21,27,28-tetrazapentacyclo[17.5.2.12,5.19,13.022,26]octacosa-1(25),2,5(28),19,22(26),23-hexaen-7-yl]carbamoyl]-2-methyl-propyl]-N-methyl-pyrrolidine-3-carboxamide] | 14 nM | 1 nM | 21 nM | 88% | stable (If % depletion after 6 hour incubation is less than 20%, compounds were reported as stable) | 5 nM | 0.3 nM | > 10000 nM | 44 nM | > 10000 nM | <2.4 mL/min/kg | low (CL_hep (mL/min/kg)<6.96 is low clearance) | 8 nM |  |  |
| CCn1c(-c2cc(N3CCN(C)CC3)cnc2[C@H](C)OC)c2c3cc(ccc31)-c1csc(n1)C[C@H](NC(=O)[C@H](C(C)C)N(C)C(=O)[C@H]1CCN(C(=O)[C@H](F)Cl)C1)C(=O)N1CCCC(N1)C(=O)OCC(C)(C)C2 (stereo partly drawn) [Example 10, (3S)-1-[(2R)-2-chloro-2-fluoro-acetyl]-N-[(1S)-1-[[(7S,13S)-21-ethyl-(20M)-20-[2-[(1S)-1-methoxyethyl]-5-(4-methylpiperazin-1-yl)-3-pyridyl]-17,17-dimethyl-8,14-dioxo-15-oxa-4-thia-9,21,27,28-tetrazapentacyclo[17.5.2.12,5.19,13.022,26]octacosa-1(25),2,5(28),19,22(26),23-hexaen-7-yl]carbamoyl]-2-methyl-propyl]-N-methyl-pyrrolidine-3-carboxamide] | 31 nM | 3 nM |  |  |  | 11 nM | 0.4 nM |  | 52 nM |  | <2.4 mL/min/kg | low (CL_hep (mL/min/kg)<6.96 is low clearance) | 59 nM | 85% | 21 nM |
| CO[C@@H](C)c1ncc(N2CCN(C)CC2)cc1-c1c2c3cc(ccc3n1CC(F)(F)F)-c1csc(n1)C[C@H](NC(=O)[C@H](C(C)C)N1CCCC3(CCN(C(=O)[C@H](F)Cl)C3)C1=O)C(=O)N1CCC[C@H](N1)C(=O)OCC(C)(C)C2 (stereo partly drawn) [Example 19, (2S)-2-[2-[(2R)-2-chloro-2-fluoro-acetyl]-6-oxo-2,7-diazaspiro[4.5]decan-7-yl]-N-[(7S,13S)-(20M)-20-[2-[(1S)-1-methoxyethyl]-5-(4-methylpiperazin-1-yl)-3-pyridyl]-17,17-dimethyl-8,14-dioxo-21-(2,2,2-trifluoroethyl)-15-oxa-4-thia-9,21,27,28-tetrazapentacyclo[17.5.2.12,5.19,13.022,26]octacosa-1(25),2,5(28),19,22(26),23-hexaen-7-yl]-3-methyl-butanamide] | 28 nM | 3 nM |  | 85% | stable (If % depletion after 6 hour incubation is less than 20%, compounds were reported as stable) | 8 nM | 0.9 nM |  | 18 nM |  | 10.1 mL/min/kg | medium (16.24<CL_hep (mL/min/kg)>6.96 is medium clearance) | 15 nM |  | 21 nM |
| CCn1c(-c2cccnc2[C@H](C)OC)c2c3cc(ccc31)-c1cc(O)cc(c1)C[C@H](NC(=O)[C@H](C(C)C)N(C)C(=O)[C@H]1CCN(C(=O)C(F)Cl)C1)C(=O)N1CCC[C@H](N1)C(=O)OCC(C)(C)C2 (stereo partly drawn) [Example 2, (3S)-1-[(2R)-2-chloro-2-fluoro-acetyl]-N-[(1S)-1-[[(8S,14S)-22-ethyl-4-hydroxy-(21M)-21-[2-[(1S)-1-methoxyethyl]-3-pyridyl]-18,18-dimethyl-9,15-dioxo-16-oxa-10,22,28-triazapentacyclo[18.5.2.12,6.110,14.023,27]nonacosa-1(26),2,4,6(29),20,23(27),24-heptaen-8-yl]carbamoyl]-2-methyl-propyl]-N-methyl-pyrrolidine-3-carboxamide] | 56 nM | 3 nM | 6 nM |  |  | 37 nM | 2 nM | 25 nM | 83 nM | 298 nM |  |  | 156 nM |  | 68 nM |
